Experimental data from patent US8097585B2, “Methods of treating inflammation by administration of heme oxygenase-1 and products of heme degradation” (priority 2002, dated 2012).
Entries after “also recorded” stand apart in the source; their conditions may differ. Where a name gives a salt, the structure may show the parent alone.

Experiments:
IL-6 = experiment: Real time RT-PCR of graft muscularis after SITx, IL-6; type: in vivo, LEW rats
Description: (§1) Small Intestinal Transplantation. Orthotopic small intestinal transplantation (SITx) was performed in syngeneic Lewis rats. SITx with caval drainage was performed using a previously described procedure (Murase et al., in Handbook of Animal Models in Transplantation Research, Cramer et al., Eds. CRC Press, Boca Raton, Fla., pp. 203-213 (1994)). […] The graft was perfused via the aortic segment with 5 ml chilled Ringer's lactate solution, and the intestinal lumen was irrigated with 20 ml of cold saline solution containing 0.5% neomycin-sulfate (Sigma, St. Louis, Mo.). End-to-side anastomoses between the graft aorta and the recipient infrarenal aorta, and between the graft portal vein and recipient vena cava, were performed with 10-0 Novafil™ suture. The cold ischemic time was 1 hour. The entire recipient intestine was removed and the enteric continuity was restored by proximal and distal end-to-end intestinal anastomoses. Recipient animals were given 20 mg/day prophylactic cefamandole nafate for 3 postoperative days. Transplanted recipients were given water 3 hours after surgery, and were fed 24 hours after surgery.
(§2) SYBR green real time RT-PCR. The effects of administration of biliverdin on transplant-induced pro-inflammatory and anti-inflammatory gene expression were assessed in muscularis extracts by RT-PCR Biliverdin ([…], i.p.) was administered to both the donor and recipient three hours preoperatively. The muscularis externae was collected from normal intestine and transplanted grafts 4 hours postoperatively and snap frozen in liquid nitrogen. […] Equal aliquots (5 μg) of total RNA from each sample were quantified by spectrophotometry (wavelength […]) and aliquoted at a concentration of 40 ng/μl. Peak mRNA expression was quantified in duplicate by SYBR Green two-step, real-time RT-PCR. […] Real-time PCR data were plotted as the ΔRn fluorescence signal versus the cycle number. […] Quantification of mRNA expression was normalized to GAPDH and calculated relative to control using the comparative CT method (Schmittgen et al., J. Biochem. Biophys. Methods 46(1-2):69-8, 2000). […]

[1] = tested on: transplanted islets in diabetic mice; experiment: Syngeneic islet transplantation, minimal mass model; type: in vivo, DBA/2 mouse; details: 50 μmol/kg twice daily day-1 until day 7; 140 islets; control hyperglycemic >52 days
Description: The ability of exogenously administered biliverdin to protect transplanted islet was evaluated in the minimal mass model. Syngeneic islet transplantation was carried out in the DBA/2 mouse. Islets (140) were transplanted under the kidney capsule of diabetic mice. Test animals were treated with 50 μmol/kg biliverdin twice daily from day-1 until day 7. The controls were treated with vehicle only. Biliverdin treated animals returned to normoglycemia in 7.7±5.5 days; animals in control group remain hyperglycemic (>52 days).

[2] = tested on: jejunal circular muscle strips; experiment: Jejunal circular muscle contractility after small intestinal transplantation (organ bath); type: in vivo, LEW rats
Description: as §1
Motility Studies. The effect of administration of biliverdin on treatment on intestinal dysmotility in transplanted grafts was assessed both in vitro and in vivo. […] In vitro circular muscle mechanical activity was measured as previously described (Eskandari et al., Am. J. Physiol. 273(3 Pt 1):G727-34, 1997). Rats were anesthetized and killed by exsanguination 24 hours post-operatively. A segment of mid-jejunum was pinned in a Sylgaard™ lined dissecting dish containing pre-oxygenated Krebs-Ringer-bicarbonate buffer (KRB; in mM: 137.4 Na^+, 5.9 K^+, 2.5 Ca^2+, 1.2 Mg^2+, 134 Cl^−, 15.5 HCO3^−, 1.2 H2PO4^−, and 11.5 glucose) that was equilibrated with 97% O2/3% CO2. […] Contractile activity was calculated by integrating the area under the trace, normalized by converting the weight and length of the strip to square millimeters of tissue (1.03 mg/mm^2), and reported as g/s/mm^2. […]

TNF-α = experiment: Real time RT-PCR of graft muscularis after SITx, TNF-α; type: in vivo, LEW rats; details: BV treatment, 4 hours
Description: Small Intestinal Transplantation. Orthotopic small intestinal transplantation (SITx) was performed in syngeneic Lewis rats. SITx with caval drainage was performed using a previously described procedure (Murase et al., in Handbook of Animal Models in Transplantation Research, Cramer et al., Eds. CRC Press, Boca Raton, Fla., pp. 203-213 (1994)). […] The graft was perfused via the aortic segment with 5 ml chilled Ringer's lactate solution, and the intestinal lumen was irrigated with 20 ml of cold saline solution containing 0.5% neomycin-sulfate (Sigma, St. Louis, Mo.). […]
as §2, with “preoperatively.” for “preoperatively. The muscularis externae was collected from normal intestine and transplanted grafts 4 hours postoperatively and snap frozen in liquid nitrogen.”

For C=CC1=C(C)/C(=C/C2=NC(=C\c3[nH]c(/C=C4\NC(=O)C(C)=C4C=C)c(C)c3CCC(=O)O)/C(CCC(=O)O)=C2C)NC1=O [biliverdin, biliverdin dihydrochloride], the “reduction of IL-6 mRNA expression” value (IL-6; BV 50 mmol/kg i.p. donor and recipient, 4 hours, versus saline-treated graft) was 24%, the “basal mRNA expression of any of the cytokines” value (IL-6; BV treatment of unoperated animals) was “did not alter” and the “time to return to normoglycemia” value [1] was 7.7 ± 5.5 days. For the same compound, the “spontaneous muscle contractile activity” value ([2]; control (unoperated) animals treated with BV) was “no change”, the spontaneous contractile activity ([2]; grafts in recipients treated with BV, compared to untreated transplants, 24 hours) was “significantly greater” and the bethanechol-stimulated muscle contractility ([2]; transplanted animals treated with BV versus untreated graft muscles, 24 hours, listed as BV, dihydrochloride) was “significantly improved; also recorded: Significant improvement”. For the same compound, the “upregulation of TNF-α mRNA caused by transplantation” value (TNF-α) was “did not significantly change”.
